Several values for one entry are separate records, joined by “and”; a condition that tells them apart may be missing. Identical values can stand only once.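 Assay format: 96-well plates, 48-hour exposure. GI50 marks 50% less growth. TGI: total growth inhibition.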
How the values were obtained:
Assay in all cases: DTP human tumour cell line panel, 48 h
MDA-N = system: MDA-N
MDA-MB-435 = system: MDA-MB-435
MOLT-4 leukemia = system: MOLT-4 leukemia
SK-OV-3 ovarian = system: SK-OV-3 ovarian
BT-549 breast = system: BT-549 breast
SK-MEL-28 melanoma = system: SK-MEL-28 melanoma
M14 melanoma = system: M14 melanoma
CAKI-1 renal = system: CAKI-1 renal
HOP-92 NSCLC = system: HOP-92 NSCLC

SMILES	TGI (MDA-N) [µM]	TGI (MDA-MB-435) [µM]	TGI (MOLT-4 leukemia) [µM]	TGI (SK-OV-3 ovarian) [µM]	TGI (BT-549 breast) [µM]	TGI (SK-MEL-28 melanoma) [µM]	TGI (M14 melanoma) [µM]	TGI (CAKI-1 renal) [µM]	TGI (HOP-92 NSCLC) [µM]	GI50 (MDA-MB-435)	GI50 (MOLT-4 leukemia)	GI50 (SK-OV-3 ovarian) [µM]	GI50 (BT-549 breast)	GI50 (SK-MEL-28 melanoma) [µM]	GI50 (M14 melanoma) [µM]	GI50 (CAKI-1 renal) [µM]	GI50 (HOP-92 NSCLC)
CC1=NN(c2ccccc2)C(=O)/C1=C1\SC(c2ccccc2)(c2ccccc2)c2ccccc21	> 100	> 100	> 100	> 100	> 100	> 100	> 100	> 100	> 100								
CN(C(=O)Cc1cc(Cl)c(Cl)cc1NC(=O)CCCN)[C@H]1CCCC[C@@H]1N1CCCC1	30.7	31.6	> 100	> 100	> 100	33	34	> 100									
C[C@]12CCC(=O)C=C1CC[C@@H]1[C@@H]2CC[C@]2(C)C(=O)/C(=C/c3ccc([N+](=O)[O-])cc3)C[C@@H]12	> 100	> 100	> 100	> 100	> 100	> 100	> 100	> 100	> 100								
O=C(CSc1nc2ccccc2c(=O)n1-c1ccccc1)N=Nc1c(O)[nH]c2ccc(Br)cc12	16.9	34	> 29.4	13.1	> 59.6	13.8	6.87	3.69	7.76								
NC(=O)N/N=C(\Cc1cc(=O)oc2cc(O)ccc12)C(=O)Nc1ccccc1C(N)=O	> 100	> 100	> 100	> 100	> 100	> 100	> 100	> 100	> 100								
O=c1[nH]nc(-c2ccc3ccccc3c2)[nH]1	> 100	> 100	> 100		> 100	> 100	> 100	> 100									
OC1C2CN3CCN(C2)CC1(c1ccccc1)C3 (stereo unspecified)	> 100	> 100	> 100		> 100	> 100		> 100									
CN(C)N1C(=C(C#N)C#N)C(c2ccccc2)CC1C#N (stereo unspecified)	> 100	> 100	> 100	> 100		> 100	> 100	> 100	> 100								
Fc1ccc(F)c(C=NC23CC4CC(CC(C4)C2)C3)c1	> 10		> 10	> 10	> 10	> 10	> 10	> 10	> 10								
Cc1cc2c(cc1Cl)SSc1cc(Cl)c(C)cc1S(=O)(=O)Nc1nc(N)nn1C(O)n1nc(N)nc1NS2(=O)=O	> 10		> 10	> 10	> 10	> 10	> 10	> 10	> 10								
C#CCOC(=O)C=[N+]=[N-]	> 10	> 10	> 10	> 10	> 10	> 10	> 10		> 10								
COc1ccccc1C1C(C#N)=C(N)SC(N)=C1C#N		> 100	> 100	> 100	> 100	> 100	> 100	> 100	> 100	52.8 µM	45 µM	> 100	55.6 µM	43.3	91.6	7.71	47.1 µM
CCOC(=O)c1nc(SC)sc1NC(=O)c1ccc(OC)cc1	> 100	> 100	> 100	> 100		> 100	> 100	> 100	> 100								
CC(C)(C)c1ccc(O)c(C(O)c2ccccn2)c1 (stereo unspecified)	> 100	> 100	> 100		> 100	> 100		> 100									
Cc1cccc(C)c1NC(=S)N/C=C(\C#N)C(N)=O	> 100	> 100	> 100	> 100		> 100	> 100	> 100	> 100								
COC(=O)C12C(=O)CC3CCC1C32C(=O)OC (stereo unspecified)	> 100	> 100	> 100	> 100	> 100	> 100	> 100	> 100									
Cn1c2ccccc2n2c(=O)c(-c3ccc(Cl)cc3)nnc12	> 100	> 100	> 100		> 100	> 100	> 100	> 100	> 100								
CC(C)(C)OC(=O)C1C(=O)NC(=O)CC1C(OCc1ccccc1)C(OCc1ccccc1)C(COCc1ccccc1)OCc1ccccc1 (stereo unspecified)	> 100	> 100	> 100		> 100	> 100	> 100		> 100	> 100 µM and 28.9 µM	66 µM and 9.83 µM		> 100 µM and 31.7 µM				> 100 µM and 13.3 µM
CN(C)CCNc1c(O)c2c(c(O)c1Cl)C(=O)C=CC2=O	4.64	3.68	> 100	32.1	3.17	4.36	3.64		4.25								
Cc1cc(C)c2c(-c3ccccc3)cc(=O)[nH]c2c1	> 100	> 100	> 100	> 100		> 100	> 100										
O=C(CN1CCCCC1)c1ccc2[nH]c(=O)oc2c1	> 100	> 100	> 100	> 100	> 100	> 100	> 100	> 100									
CCCCCCCCCCCCCOCCOCCOCCCCC(O)CCCCCCCCCC1=C[C@H](C)OC1=O (stereo partly specified)	45.3	57.1	37.2	> 100	27.9	31.5	> 100	44.4									
CC1=C[C@H](C[C@]2(C)c3c(c4c(C)cccc4oc3=O)O[C@@H]2C)OC1=O	> 100	> 100	72.3	> 100	74.7		> 100	> 100									

Source: PubChem BioAssay (NCI)
